In patent US20150018369A1 (priority 2012, published 2015):

Tests used:
[1] = tested on: mouse microglia in primary culture; assay: cAMP production in mouse microglia; type: cell-based
GPR124 = target: T1, GPR124 (Homo sapiens, UniProt Q96PE1); assay: ST-11 toxicity in T98 g cells after siRNA knock-down of GPR124; type: cell-based; conditions: ST-11 1 μM, siRNA targeting GPR124, viability after three days
T1 construct: endogenous in cells; host or cells: T98g human astrocytoma cells
T1 sequence (Q96PE1 34-1338): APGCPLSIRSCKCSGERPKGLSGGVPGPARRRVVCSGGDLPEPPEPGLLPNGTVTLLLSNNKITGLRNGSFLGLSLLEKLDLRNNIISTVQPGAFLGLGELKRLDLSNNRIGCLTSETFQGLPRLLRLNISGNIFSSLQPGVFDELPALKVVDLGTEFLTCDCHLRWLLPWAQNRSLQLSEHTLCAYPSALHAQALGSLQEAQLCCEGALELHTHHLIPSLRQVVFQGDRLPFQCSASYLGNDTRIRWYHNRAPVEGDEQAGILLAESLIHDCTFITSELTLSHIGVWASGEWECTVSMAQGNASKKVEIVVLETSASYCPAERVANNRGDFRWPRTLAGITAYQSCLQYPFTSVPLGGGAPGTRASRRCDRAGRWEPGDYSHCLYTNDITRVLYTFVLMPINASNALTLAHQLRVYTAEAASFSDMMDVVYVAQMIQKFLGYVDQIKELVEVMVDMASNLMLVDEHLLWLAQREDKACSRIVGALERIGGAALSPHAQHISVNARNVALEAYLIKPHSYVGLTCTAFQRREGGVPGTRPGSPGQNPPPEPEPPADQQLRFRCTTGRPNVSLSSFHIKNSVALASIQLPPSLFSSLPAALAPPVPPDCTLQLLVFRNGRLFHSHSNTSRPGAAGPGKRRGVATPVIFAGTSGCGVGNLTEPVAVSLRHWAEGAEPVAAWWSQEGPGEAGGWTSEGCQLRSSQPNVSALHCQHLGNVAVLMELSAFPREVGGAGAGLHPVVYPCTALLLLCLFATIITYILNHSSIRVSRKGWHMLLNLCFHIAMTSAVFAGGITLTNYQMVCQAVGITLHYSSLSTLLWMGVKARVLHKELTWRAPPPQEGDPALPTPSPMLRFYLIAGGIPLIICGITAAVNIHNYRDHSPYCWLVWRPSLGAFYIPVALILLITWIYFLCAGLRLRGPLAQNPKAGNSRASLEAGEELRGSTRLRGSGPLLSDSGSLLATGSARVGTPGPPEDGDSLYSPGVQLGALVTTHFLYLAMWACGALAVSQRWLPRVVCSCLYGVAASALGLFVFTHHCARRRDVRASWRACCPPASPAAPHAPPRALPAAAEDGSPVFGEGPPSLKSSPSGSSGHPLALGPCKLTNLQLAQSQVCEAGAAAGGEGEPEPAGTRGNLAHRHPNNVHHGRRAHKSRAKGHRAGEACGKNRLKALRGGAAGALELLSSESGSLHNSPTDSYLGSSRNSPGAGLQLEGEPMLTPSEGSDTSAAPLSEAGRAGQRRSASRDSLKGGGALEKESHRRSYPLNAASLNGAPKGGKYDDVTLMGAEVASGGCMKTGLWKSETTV
Protocol: To determine which of the gene candidate encodes for AI receptors, an siRNA approach is used to knock down each candidate individually to determine which one prevents the toxic effect of ST-11 and thus encodes for AI receptors. The prediction is that knocking down AI receptors prevents the cell death induced by ST-11. T98 g cells were treated with siRNA targeting each of the 39 GPCR gene candidates individually. The first experiment was designed to knock down each GPCR candidate liming a mixture of 3 siRNAs, and thus maximize genetic targeting efficacy. Thus, cells were incubated with siRNA mixtures and then treated with ST-11 (1 μM) and cell viability measured after three days. Only one mixture of siRNAs (that targeting GPR124) decreased the toxicity of ST-11. […] Two of the three siRNAs knocked-down GPR124 expression by more than 80% over 4 days (FIG. 5b). […] The killing effect induced by ST-11 is mediated by GPR124, an AI receptor.

With `CCn1c(C)c(C(=O)c2ccc(C)c3ccccc23)c2ccccc21` [ST-11] the “cAMP production stimulated by Isoproterenol” value [1] was “inhibits cAMP production” and the “ST-11-induced killing of T98 g cells when GPR124 mRNA expression is reduced” value (GPR124) was “reduced”.
